Literature values in PubChem BioAssay AID1259409 (Chemical Carcinogenesis Research Information System (CCRIS), 2018).

Tested on: rodent chemically induced tumor inhibition, incidence and multiplicity
Experiment: CCRIS tumor inhibitor studies
Settings: Species: MOUSE

Compound	tumour outcome (control, treated, inhibition, significance) (Carcinogen: 7,12-DIMETHYLBENZ[A]ANTHRACENE, 57-97-6, Dose [Inhibitor]: 0.04% IN DRINKING WATER DAILY STARTING 4 WK BEFORE CARCINOGEN TREATMENT AND CONTINUING FOR DURATION OF STUDY (STUDY DURA, Route [Inhibitor]: ORAL, Strain/Sex: 101/MALE, FEMALE, Target Tissue: Type of Lesion: SKIN: PAPILLOMA, Dose [Carcinogen]: 225 UG IN 0.15 ML ACETONE ONCE, Promoter: CROTON OIL, 8001-28-3)	tumour outcome (control, treated, inhibition, significance) (Carcinogen: HYDRAZINE SULFATE, 10034-93-2, Dose [Inhibitor]: 1.1 MG/D IN DIET STARTING 1 WK PRIOR TO ADMINISTRATION OF CARCINOGEN UNTIL END OF EXPERIMENT (STUDY DURATION: APPROXIMAT, Route [Inhibitor]: ORAL, Strain/Sex: SWISS/MALE, FEMALE, Target Tissue: Type of Lesion: LUNG: TUMORS, Dose [Carcinogen]: 1.1 MG/D 5 D/WK UNTIL 12 MO OF AGE, Promoter: NONE USED)	tumour outcome (control, treated, inhibition, significance) (Carcinogen: ISONIAZID, 54-85-3, Dose [Inhibitor]: 1.1 MG/MOUSE/D SIMULTANEOUSLY WITH CARCINOGEN 6 D/WK (STUDY DURATION: 24 MO), Route [Inhibitor]: INTRAGASTRIC, Strain/Sex: SWISS/MALE, Target Tissue: Type of Lesion: LUNG: TUMOR, Dose [Carcinogen]: 1.1 MG/MOUSE/D SIMULTANEOUSLY WITH AGENT, Promoter: NONE USED)	tumour outcome (control, treated, inhibition, significance) (Carcinogen: 3-METHYLCHOLANTHRENE, 56-49-5, Dose [Inhibitor]: 0, 1/200 OF A PILL CONTAINING 0.25 UG ETHINYLESTRADIOL AND 5 UG LYNESTRENOL 1/D FOR 60 D (STUDY DURATION: 60 D), Route [Inhibitor]: ORAL, Strain/Sex: SWISS/FEMALE, Target Tissue: Type of Lesion: UTERINE CERVIX: TUMOR, Dose [Carcinogen]: 300 UG IN BEESWAX IMPREGNATED COTTON THREAD INSERTED INTO CANAL OF UTERINE CERVIX FOR DURATION OF STUDY, Promoter: NONE USED)	tumour outcome (control, treated, inhibition, significance) (Carcinogen: 3-METHYLCHOLANTHRENE, 56-49-5, Dose [Inhibitor]: 0, 1/200 OF A PILL CONTAINING 0.25 UG ETHINYLESTRADIOL AND 5 UG LYNESTRENOL 1/D FOR 90 D (STUDY DURATION: 90 D), Route [Inhibitor]: ORAL, Strain/Sex: SWISS/FEMALE, Target Tissue: Type of Lesion: UTERINE CERVIX: TUMOR, Dose [Carcinogen]: 300 UG IN BEESWAX IMPREGNATED COTTON THREAD INSERTED INTO CANAL OF UTERINE CERVIX FOR DURATION OF STUDY, Promoter: NONE USED)	tumour outcome (control, treated, inhibition, significance) (Carcinogen: 3-METHYLCHOLANTHRENE, 56-49-5, Dose [Inhibitor]: 0, 1/2000 OF A PILL CONTAINING 0.025 UG ETHINYLESTRADIOL AND 0.5 UG OF LYNESTRENOL 1/D FOR 60 D (STUDY DURATION: 60 D), Route [Inhibitor]: ORAL, Strain/Sex: SWISS/FEMALE, Target Tissue: Type of Lesion: UTERINE CERVIX: TUMOR, Dose [Carcinogen]: 300 UG IN BEESWAX IMPREGNATED COTTON THREAD INSERTED INTO CANAL OF UTERINE CERVIX FOR DURATION OF STUDY, Promoter: NONE USED)	tumour outcome (control, treated, inhibition, significance) (Carcinogen: 3-METHYLCHOLANTHRENE, 56-49-5, Dose [Inhibitor]: 0, 1/2000 OF A PILL CONTAINING 0.025 UG ETHINYLESTRADIOL AND 0.5 UG OF LYNESTRENOL 1/D FOR 90 D (STUDY DURATION: 90 D), Route [Inhibitor]: ORAL, Strain/Sex: SWISS/FEMALE, Target Tissue: Type of Lesion: UTERINE CERVIX: TUMOR, Dose [Carcinogen]: 300 UG IN BEESWAX IMPREGNATED COTTON THREAD INSERTED INTO THE CANAL OF THE UTERINE CERVIX FOR THE DURATION OF STUDY, Promoter: NONE USED)
Cc1ncc(CO)c(CO)c1O	17/19 (89%), 17/18 (94%), -6%, not calculated	22/29 (76%), 26/33 (79%), -4%, not significant	15/29 (52%), 2/12 (17%), 67%, p<0.1	–	–	–	–
C#C[C@]1(O)CC[C@H]2[C@@H]3CCc4cc(CC)ccc4[C@H]3CC[C@@]21C (tested in a mixture with another compound)	–	–	–	2/23 (9%), 1/27 (4%), 56%, not significant	6/23 (26%), 4/20 (20%), 23%, not significant	2/23 (9%), 1/24 (4%), 56%, not significant	6/23 (26%), 1/31 (3%), 88%, p<0.05
